# Assay results as given in patent US5607691A, “Compositions and methods for enhanced drug delivery” (priority 1995, dated 1997).
# Structures can show the parent of a compound that is named as a salt.
# Assay: in vitro
# Assay type: in vitro ADME, human
# Settings: Table 5; human serum, 37° C.
# Outline: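 Complex from 6 mM ethanol stock added to freshly defrosted human serum at 37° C. Aliquots quenched in 2% zinc sulfate, centrifuged, and supernatant analysed by reversed-phase C8 HPLC for % remaining by peak area. Half-life from slope of ln % remaining vs time.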
row,Compound,Serum Half-life
1,"digitoxigenin-3-(O-acetyl-D,L-carnitine) ester, (D isomer), chloride salt",~ 50 min
2,"digoxin-12-{N-[6-(N',N',N'-trimethylamino)hexanoyloxymethyl]glycinoyloxymethyl} carbonate-3""',4""'-cyclic carbonate, bromide salt",7 min

# Same assay, conditions: human, serum
row,Compound,Serum Half-life
1,"CC(=O)[C@H]1CC[C@H]2[C@@H]3CC=C4C=C(OC(=O)C[N+](C)(C)C)CC[C@]4(C)[C@H]3CC[C@]12C.[Br-] [progesterone-3-betainoyl enol ester, bromide salt]",1.6 min

# Same assay, conditions: human, serum, Table 5; human serum, 37° C.; read-out: Serum Half-life (converted)
row,Compound,half-life
1,"CN(Cc1cnc2nc(N)nc(N)c2n1)c1ccc(C(=O)N[C@@H](CCC(=O)OCOC(=O)CCC[N+](C)(C)C)C(=O)OCOC(=O)CCC[N+](C)(C)C)cc1 [methotrexate-bis-(4-trimethylammoniobutyroyloxymethyl ester), diiodide salt]",108 min
2,"CN(Cc1cnc2nc(N)nc(N)c2n1)c1ccc(C(=O)N[C@@H](CCC(=O)OCC[N+](C)(C)C)C(=O)OCC[N+](C)(C)C)cc1 [methotrexate-bis-choline ester, dibromide salt]",840 min
3,"CCn1cc(C(=O)OCOC(=O)CCCCC[N+](C)(C)C)c(=O)c2ccc(C)nc21 [nalidixic acid 6-(N,N,N-trimethylamino)-hexanoyloxymethyl ester, iodide salt]",4.8 min
4,"CCn1cc(C(=O)OCC[N+](C)(C)C)c(=O)c2ccc(C)nc21 [nalidixic acid, choline ester, bromide salt]",66 min
5,"CCn1cc(C(=O)OCOC(=O)OCC[N+](C)(C)C)c(=O)c2ccc(C)nc21 [nalidixic acid, cholinecarbonato methyl ester, iodide salt]",1.27 min
6,O=C(OCCc1ccc([N+](=O)[O-])cc1)c1cccnc1 [p-nitrophenylethyl alcohol nicotinate ester],0.433 min
7,C[n+]1cccc(C(=O)OCCc2ccc([N+](=O)[O-])cc2)c1 [p-nitrophenylethyl alcohol trigonelline ester],28 min
8,"CC(=O)[C@H]1CC[C@H]2[C@@H]3CC=C4C=C(OC(=O)CCC[N+](C)(C)C)CC[C@]4(C)[C@H]3CC[C@]12C [progesterone-3-(4-N,N,N-trimethylammoniobutyrate) enol ester, bromide salt]",180 min
9,"CC(=O)O[C@H](CC(=O)OC[C@H](NC(=O)OCc1ccccc1)C(=O)OCc1ccccc1)C[N+](C)(C)C [serine, L-isomer, HO-(O-acetyl-L-carnitine ester) N-CBZ, benzyl ester]",21 min
10,"C[n+]1cccc(C(=O)OC[C@H](NC(=O)OCc2ccccc2)C(=O)OCc2ccccc2)c1 [serine, L-isomer, HO-trigonellate ester, N-CBZ, benzyl ester]",5 min
11,"C[C@]12CC[C@H]3[C@@H](CCC4=CC(=O)CC[C@@]43C)[C@@H]1CC[C@@H]2OC(=O)OCOC(=O)CCCCC[N+](C)(C)C [testosterone-17-(6-trimethylammoniohexanoyloxymethyl) carbonate, bromide salt]",19 min
12,"CCOC(=O)C[C@H](C[N+](C)(C)C)OC(=O)O[C@H]1CC[C@H]2[C@@H]3CCC4=CC(=O)CC[C@]4(C)[C@H]3CC[C@]12C [testosterone-17-(L-carnitineethyl ester) carbonate, iodide salt]",49 min
13,"CC(=O)O[C@H](CC(=O)O[C@H]1CC[C@H]2[C@@H]3CCC4=CC(=O)CC[C@]4(C)[C@H]3CC[C@]12C)C[N+](C)(C)C [testosterone-17-(O-acetyl-L-carnitinate), chloride salt]",5760 min
14,"CCCCCCCCCCCCCCCC(=O)O[C@H](CC(=O)O[C@H]1CC[C@H]2[C@@H]3CCC4=CC(=O)CC[C@]4(C)[C@H]3CC[C@]12C)C[N+](C)(C)C [testosterone-17-(O-palmityl-L-carnitinate), chloride salt]",7060 min
15,"C[C@]12CC[C@H]3[C@@H](CCC4=CC(=O)CC[C@@]43C)[C@@H]1CC[C@@H]2OC(=O)OCOC(=O)C[N+](C)(C)C [testosterone-17-betainoyloxymethyl carbonate, iodide salt]",0.633 min
16,"C[C@]12CC[C@H]3[C@@H](CCC4=CC(=O)CC[C@@]43C)[C@@H]1CC[C@@H]2OC(=O)OCOC(=O)COC(=O)C[N+](C)(C)C [testosterone-17-betainoyloxymethylcarbonyloxymethyl carbonate, iodide salt]",8.5 min
17,"C[C@]12CC[C@H]3[C@@H](CCC4=CC(=O)CC[C@@]43C)[C@@H]1CC[C@@H]2OC(=O)OCC[N+](C)(C)C [testosterone-17-choline carbonate, bromide salt]",29 min
18,"Cn1c(=O)c2c(ncn2COC(=O)C[N+](C)(C)C)n(C)c1=O [theophylline-7-(N,N,N,-trimethylglycyloxymethyl), iodide salt]",0.5 min
19,"CN(C)CC(=O)OCn1cnc2c1c(=O)n(C)c(=O)n2C [theophylline-7-(N,N-dimethylglycyloxymethyl]",1680 min
20,"Cn1c(=O)c2c(ncn2COC(=O)CCC[N+](C)(C)C)n(C)c1=O [theophylline-7-[4-(N,N,N-trimethylamino)-butyroyloxymethyl], bromide salt]",144 min
21,"CC(=O)O[C@H](CC(=O)O[C@H](C)[C@H](NC(=O)OCc1ccccc1)C(=O)OCc1ccccc1)C[N+](C)(C)C [threonine, L-isomer, HO-(O-acetyl-L-carnitine ester), N-CBZ, benzyl ester]",40 min
22,"C[C@@H](OC(=O)c1ccc[n+](C)c1)[C@H](NC(=O)OCc1ccccc1)C(=O)OCc1ccccc1 [threonine, L-isomer, HO-trigonellate ester, N-CBZ benzyl ester]",40 min

# Assay: not given
# Settings: man, incomplete and variable, averaging; cited from earlier work
row,Compound,absorption of an oral dose
1,"O.Sc1ncnc2nc[nH]c12 [mercaptopurine, 1,7-dihydro-6H-purine-6-thione monohydrate]",approximately 50 % of the administered dose

# Assay: not given
# Settings: in vivo; cited from earlier work
row,Compound,absorption
1,CCn1cc(C(=O)O)c(=O)c2ccc(C)nc21 [Nalidixic acid],rapidly absorbed from the gastrointestinal tract
2,"C[C@H]1O[C@@H](O[C@H]2[C@@H](O)C[C@H](O[C@H]3[C@@H](O)C[C@H](O[C@H]4CC[C@@]5(C)[C@H](CC[C@@H]6[C@@H]5CC[C@]5(C)[C@@H](C7=CC(=O)OC7)CC[C@]65O)C4)O[C@@H]3C)O[C@@H]2C)C[C@H](O)[C@@H]1O [digitoxin, 3β,5β-3-[(O-2,6-dideoxy-β-D-ribo-hexopyranosyl(1→4)-O-2,6-dideoxy-β-D-ribo-hexopyranosyl-(1→4)-2,6-dideoxy-β-D-ribohexopyranosyl)oxy]-14-hydroxycard-20(22)-enolide]",completely absorbed

# Assay: not given
# Settings: in animals; cited from earlier work
row,Compound,central nervous system activity
1,O=C1Nc2ccc(Cl)cc2C(c2ccccc2Cl)=NC1O[C@@H]1O[C@H](C(=O)O)[C@@H](O)[C@H](O)[C@H]1O (some centres unmarked) [lorazepam glucuronide],no demonstrable central nervous system activity

# Assay: not given
# Settings: given intravenously or intramuscularly; cited from earlier work
row,Compound,mean half-life
1,"O=C1Nc2ccc(Cl)cc2C(c2ccccc2Cl)=NC1O (centres unmarked) [lorazepam, 7-chloro-5-(o-chlorophenyl)-1,3-dihydro-3-hydroxy-2H-1,4-benzodiazepin-2-one]",about 16 hours

# Assay: not given
# Settings: in vivo; cited from earlier work
# Remark: another data set of the same source
row,Compound,passage across blood-brain barrier and placenta
1,"O=c1[nH]cc(F)c(=O)[nH]1 [fluorouracil, 5-fluoro-2,4 (1H,3H)-pyrimidinedione]",diffuses readily across the blood-brain barrier

# Assay: not given
# Settings: human or mouse skin; cited from earlier work
row,Compound,iontophoretic transport across skin
1,Cytochrome c,can be iontophoretically transported readily across human or mouse skin
